According to PubChem BioAssay AID1259407 (Chemical Carcinogenesis Research Information System (CCRIS), 2018):
Active and inactive are the calls of the source. The rule behind the calls is not given here.

System: CCRIS mutagenicity, Ames/micronucleus/aberration tests
Assay: CCRIS mutagenicity studies
[1] = Test System: AMES SALMONELLA TYPHIMURIUM, Strain/Indicator: TA98, Metabolic Activation: NONE, Method: PREINCUBATION
[2] = Test System: AMES SALMONELLA TYPHIMURIUM, Strain/Indicator: TA98, Metabolic Activation: RAT, LIVER, S-9, AROCLOR 1254 (10%), Method: PREINCUBATION
[3] = Test System: AMES SALMONELLA TYPHIMURIUM, Strain/Indicator: TA100, Metabolic Activation: NONE, Method: PREINCUBATION
[4] = Test System: AMES SALMONELLA TYPHIMURIUM, Strain/Indicator: TA100, Metabolic Activation: RAT, LIVER, S-9, AROCLOR 1254 (10%), Method: PREINCUBATION
[5] = Test System: AMES SALMONELLA TYPHIMURIUM, Strain/Indicator: TA1535, Metabolic Activation: HAMSTER, LIVER, S-9, AROCLOR 1254 (10%), Method: PREINCUBATION
[6] = Test System: AMES SALMONELLA TYPHIMURIUM, Strain/Indicator: TA1535, Metabolic Activation: NONE, Method: PREINCUBATION
[7] = Test System: AMES SALMONELLA TYPHIMURIUM, Strain/Indicator: TA1535, Metabolic Activation: RAT, LIVER, S-9, AROCLOR 1254 (10%), Method: PREINCUBATION
[8] = Test System: AMES SALMONELLA TYPHIMURIUM, Strain/Indicator: TA1537, Metabolic Activation: HAMSTER, LIVER, S-9, AROCLOR 1254 (10%), Method: PREINCUBATION
[9] = Test System: AMES SALMONELLA TYPHIMURIUM, Strain/Indicator: TA1537, Metabolic Activation: NONE, Method: PREINCUBATION
[10] = Test System: AMES SALMONELLA TYPHIMURIUM, Strain/Indicator: TA1537, Metabolic Activation: RAT, LIVER, S-9, AROCLOR 1254 (10%), Method: PREINCUBATION
[11] = Test System: AMES SALMONELLA TYPHIMURIUM, Strain/Indicator: TA98, Metabolic Activation: RAT, LIVER, S-9, AROCLOR 1254, Method: PREINCUBATION
[12] = Test System: AMES SALMONELLA TYPHIMURIUM, Strain/Indicator: TA100, Metabolic Activation: RAT, LIVER, S-9, AROCLOR 1254, Method: PREINCUBATION
[13] = Test System: AMES SALMONELLA TYPHIMURIUM, Strain/Indicator: TA98, Metabolic Activation: NONE, Method: STANDARD PLATE
[14] = Test System: AMES SALMONELLA TYPHIMURIUM, Strain/Indicator: TA100, Metabolic Activation: NONE, Method: STANDARD PLATE

## CNc1ccc(O)cc1
Test System: AMES SALMONELLA TYPHIMURIUM, Strain/Indicator: TA97, Metabolic Activation: HAMSTER, LIVER, AROCLOR 1254 (10%), Method: PREINCUBATION
  mutagenic call: inactive; negative
Test System: AMES SALMONELLA TYPHIMURIUM, Strain/Indicator: TA97, Metabolic Activation: NONE, Method: PREINCUBATION
  mutagenic call: inactive; negative
Test System: AMES SALMONELLA TYPHIMURIUM, Strain/Indicator: TA97, Metabolic Activation: RAT, LIVER, S-9, AROCLOR 1254 (10%), Method: PREINCUBATION
  mutagenic call: active; positive
Test System: AMES SALMONELLA TYPHIMURIUM, Strain/Indicator: TA98, Metabolic Activation: HAMSTER, LIVER, S-9, AROCLOR 1254 (10%), Method: PREINCUBATION
  mutagenic call: inactive; negative
[1]
  mutagenic call: inactive; negative
[2]
  mutagenic call: inactive; negative
[3]
  mutagenic call: inactive; negative
[4]
  mutagenic call: inactive; negative
[5]
  mutagenic call: inactive; negative
[6]
  mutagenic call: inactive; negative
[7]
  mutagenic call: inactive; negative
[8]
  mutagenic call: active; positive
[9]
  mutagenic call: inactive; negative
[10]
  mutagenic call: active; positive

## Brc1c(Br)c(Br)c(Br)c(Br)c1Br
Test System: AMES SALMONELLA TYPHIMURIUM, Strain/Indicator: TA98, Metabolic Activation: HAMSTER, LIVER, S-9, AROCLOR 1254, Method: PREINCUBATION
  mutagenic call: inactive; negative
[1]
  mutagenic call: inactive; negative
[11]
  mutagenic call: inactive; negative
Test System: AMES SALMONELLA TYPHIMURIUM, Strain/Indicator: TA100, Metabolic Activation: HAMSTER, LIVER, S-9, AROCLOR 1254, Method: PREINCUBATION
  mutagenic call: inactive; negative
[3]
  mutagenic call: inactive; negative
[12]
  mutagenic call: inactive; negative
Test System: AMES SALMONELLA TYPHIMURIUM, Strain/Indicator: TA1535, Metabolic Activation: HAMSTER, LIVER, S-9, AROCLOR 1254, Method: PREINCUBATION
  mutagenic call: inactive; negative
[6]
  mutagenic call: inactive; negative
Test System: AMES SALMONELLA TYPHIMURIUM, Strain/Indicator: TA1535, Metabolic Activation: RAT, LIVER, S-9, AROCLOR 1254, Method: PREINCUBATION
  mutagenic call: inactive; negative
Test System: AMES SALMONELLA TYPHIMURIUM, Strain/Indicator: TA1537, Metabolic Activation: HAMSTER, LIVER, S-9, AROCLOR 1254, Method: PREINCUBATION
  mutagenic call: inactive; negative
[9]
  mutagenic call: inactive; negative
Test System: AMES SALMONELLA TYPHIMURIUM, Strain/Indicator: TA1537, Metabolic Activation: RAT, LIVER, S-9, AROCLOR 1254, Method: PREINCUBATION
  mutagenic call: inactive; negative

## O=c1c(O)c2c(c3c1ccc1[nH]c4c(ccc5ccccc54)cc13)O2
Test System: AMES SALMONELLA TYPHIMURIUM, Strain/Indicator: TA98, Metabolic Activation: RAT, LIVER, AROCLOR 1254, NADPH GENERATING SYSTEM, Method: STANDARD PLATE
  mutagenic call: inactive; negative
Test System: AMES SALMONELLA TYPHIMURIUM, Strain/Indicator: TA100, Metabolic Activation: RAT, LIVER, AROCLOR 1254, NADPH GENERATING SYSTEM, Method: STANDARD PLATE
  mutagenic call: inactive; negative
Test System: CHINESE HAMSTER V-79, Strain/Indicator: V-79/8-AZAGUANINE, Method: STANDARD PLATE
  mutagenic call: inactive; negative

## CCOP(=S)(OCC)SCCl
Test System: AMES SALMONELLA TYPHIMURIUM, Strain/Indicator: TA98, Metabolic Activation: NONE
  mutagenic call: inactive; negative
[13]
  mutagenic call: inactive; negative
Test System: AMES SALMONELLA TYPHIMURIUM, Strain/Indicator: TA98, Metabolic Activation: RAT, LIVER, S-9, SODIUM PHENOBARBITAL, Method: STANDARD PLATE
  mutagenic call: inactive; negative
Test System: AMES SALMONELLA TYPHIMURIUM, Strain/Indicator: TA98, Metabolic Activation: S-9
  mutagenic call: inactive; negative
Test System: AMES SALMONELLA TYPHIMURIUM, Strain/Indicator: TA100, Metabolic Activation: NONE
  mutagenic call: inactive; negative
[14]
  mutagenic call: inactive; negative
Test System: AMES SALMONELLA TYPHIMURIUM, Strain/Indicator: TA100, Metabolic Activation: RAT, LIVER, S-9, SODIUM PHENOBARBITAL, Method: STANDARD PLATE
  mutagenic call: inactive; negative
Test System: AMES SALMONELLA TYPHIMURIUM, Strain/Indicator: TA100, Metabolic Activation: S-9
  mutagenic call: inactive; negative
Test System: E. COLI, Strain/Indicator: WP2, Metabolic Activation: NONE
  mutagenic call: inactive; negative
Test System: E. COLI, Strain/Indicator: WP2, Metabolic Activation: RAT, LIVER, S-9, SODIUM PHENOBARBITAL, Method: STANDARD PLATE
  mutagenic call: inactive; negative
Test System: E. COLI, Strain/Indicator: WP2, Metabolic Activation: S-9
  mutagenic call: inactive; negative
Test System: E. COLI, Strain/Indicator: WP2 UVRA, Metabolic Activation: NONE
  mutagenic call: inactive; negative
Test System: E. COLI, Strain/Indicator: WP2 UVRA, Metabolic Activation: RAT, LIVER, S-9, SODIUM PHENOBARBITAL, Method: STANDARD PLATE
  mutagenic call: inactive; negative
Test System: E. COLI, Strain/Indicator: WP2 UVRA, Metabolic Activation: S-9
  mutagenic call: inactive; negative

## Nc1ncnc2c1ncn2[C@@H]1O[C@H](CO)C[C@H]1O
[13]
  mutagenic call: active; positive
Test System: AMES SALMONELLA TYPHIMURIUM, Strain/Indicator: TA98, Metabolic Activation: RAT, LIVER, S-9, POLYCHLORINATED BIPHENYLS, Method: STANDARD PLATE
  mutagenic call: active; positive
[14]
  mutagenic call: active; positive
Test System: AMES SALMONELLA TYPHIMURIUM, Strain/Indicator: TA100, Metabolic Activation: RAT, LIVER, S-9, POLYCHLORINATED BIPHENYLS, Method: STANDARD PLATE
  mutagenic call: active; positive

## CC(N)Cc1ccccc1 (stereo not drawn)
Test System: AMES SALMONELLA TYPHIMURIUM, Strain/Indicator: TA98, Metabolic Activation: HAMSTER, LIVER, S-9, AROCLOR 1254 (4%, 10% OR 20%), Method: PREINCUBATION
  mutagenic call: inactive; negative
Test System: AMES SALMONELLA TYPHIMURIUM, Strain/Indicator: TA98, Metabolic Activation: HAMSTER, LIVER, S-9, AROCLOR 1254 (4, 10 OR 20%), Method: PREINCUBATION
  mutagenic call: inactive; negative
[1]
  mutagenic call: inactive; negative
[2]
  mutagenic call: inactive; negative
Test System: AMES SALMONELLA TYPHIMURIUM, Strain/Indicator: TA100, Metabolic Activation: HAMSTER, LIVER, S-9, AROCLOR 1254 (10%), Method: PREINCUBATION
  mutagenic call: inactive; negative
[3]
  mutagenic call: inactive; negative
[4]
  mutagenic call: inactive; negative
[5]
  mutagenic call: inactive; negative
[6]
  mutagenic call: inactive; negative
[7]
  mutagenic call: inactive; negative
[8]
  mutagenic call: inactive; negative
[9]
  mutagenic call: inactive; negative
[10]
  mutagenic call: inactive; negative

## O=NN1CCSC1[C@H](O)[C@@H](O)[C@@H](O)CO (stereo partly drawn)
[1]
  mutagenic call: inactive; negative
[13]
  mutagenic call: inactive; negative
[11]
  mutagenic call: inactive; negative
Test System: AMES SALMONELLA TYPHIMURIUM, Strain/Indicator: TA98, Metabolic Activation: RAT, LIVER, S-9, AROCLOR 1254, Method: STANDARD PLATE
  mutagenic call: inactive; negative
[3]
  mutagenic call: inactive; negative
[14]
  mutagenic call: inactive; negative
[12]
  mutagenic call: inactive; negative
Test System: AMES SALMONELLA TYPHIMURIUM, Strain/Indicator: TA100, Metabolic Activation: RAT, LIVER, S-9, AROCLOR 1254, Method: STANDARD PLATE
  mutagenic call: inactive; negative
